Experimental data: article PMC10970644, “Molecular Pharmacology of Gelsemium Alkaloids on Inhibitory Receptors” (International Journal of Molecular Sciences, 2024)

How the values were obtained:
α1 GlyR = biological target: T1, α1 GlyR (Rattus norvegicus, UniProt P07727); assay: cell-based; format: cell-based
T1 construct: expressed in transfected cells; host or cells: HEK293 (ATCC CRL-1573)
T1 sequence (P07727 29-457): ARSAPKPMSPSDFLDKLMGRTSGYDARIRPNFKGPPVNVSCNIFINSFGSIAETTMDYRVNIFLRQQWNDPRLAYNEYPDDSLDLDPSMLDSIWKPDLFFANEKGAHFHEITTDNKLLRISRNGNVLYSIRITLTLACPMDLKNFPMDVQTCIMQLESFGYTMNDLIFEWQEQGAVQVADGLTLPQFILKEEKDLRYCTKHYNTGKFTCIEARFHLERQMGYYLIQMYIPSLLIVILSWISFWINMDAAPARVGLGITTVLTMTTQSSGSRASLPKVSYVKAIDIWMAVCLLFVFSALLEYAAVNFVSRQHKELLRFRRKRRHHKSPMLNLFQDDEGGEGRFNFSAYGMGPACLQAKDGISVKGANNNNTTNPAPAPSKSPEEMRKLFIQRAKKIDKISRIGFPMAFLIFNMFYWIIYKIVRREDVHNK
Description: (§1) The cells were transfected with plasmids encoding the following proteins: (i). rat GlyR α (1, 2, 3) subunits alone or combined with rat β subunits (Uniprot Accession Numbers: Q546L7, P22771, P20236, P20781); and (ii). rat GABAAR α1 combined with rat β2 and γ2 subunits (Uniprot Accession Numbers: P62813, P63138, P18508). The EGFP expression was used as a marker of successful protein expression. The transfection was performed using Lipofectamine 2000 (Invitrogen, ThermoFisher, Carlsbad, CA, USA) using the fabricant protocol. The plasmids used to express GlyRs and GABAARs have been previously described. To track the successful expression of GlyR β subunits and the GABAA γ2 or β2 subunit, these proteins were subcloned in the pIRES2-EGFP vector. The transfection ratio to obtain β-containing GlyRs was 1:5 of α:β, while the expression of γ2-containing GABAA receptors was 1:2:5 of α:β:γ2 [14, 15]. Chimeric GlyRs were described in a previous report. Site directed mutagenesis was performed by Charm Gene Science Mutagenex LLC. (Cumming, GA, USA). All the constructs were checked by full-length sequencing (SNPSaurus, Eugene, OR, USA).
(§2) In brief, patch electrodes (3–4 MΩ) were pulled from borosilicate glasses in a PC-100 puller (Narishige, Tokyo, Japan); then, they were filled with an intracellular solution, which contained (in mM) 120 CsCl, 8 EGTA, 10 HEPES (pH 7.4), 4 MgCl2, 0.5 GTP, and 2 ATP. The extracellular solution contained (in mM) 140 NaCl, 5.4 KCl, 2.0 CaCl2, 1.0 MgCl2, 10 HEPES (pH 7.4), and 10 glucose. Whole-cell patch-clamp recordings were performed at −60 mV with an Axoclamp 200B (Molecular Devices, Sunnyvale, CA, USA) or with HEKA EPC-10 (HEKA Elektronik GmbH, Reutlingen, Germany) amplifiers. […] Brief (3–5 s) pulses of agonist together with alkaloids were applied to cells. Stock solutions of the alkaloids were prepared in high purity distilled water. Aliquots of these stock solutions were diluted in reservoirs containing extracellular solution. […] The concentration–response curve parameters for the alkaloid inhibition (IC50, nH, and the maximal current inhibition) were obtained from the fitted curve of normalized concentration–response data points to the equation Iagonist = Imax (agonist)nH/((agonist)nH + (EC50)nH). The IC50 curves are best-fit mean ± SE from pooled data. […] The inhibition constant (Ki) was calculated using the Cheng–Prusoff equation (Ki = IC50/((2 + ([Agonist]/EC50)^nH)^1/nH − 1). The concentration of agonist corresponds to the sub-saturating agonist concentration used to obtain the IC50 for each alkaloid on a given GlyR subtype.

[1] = cited from earlier work
α3 GlyR = biological target: T2, α3 GlyR (Rattus norvegicus, UniProt P24524); assay: cell-based; format: cell-based
T2 construct: expressed in transfected cells; host or cells: HEK293 (ATCC CRL-1573)
T2 sequence (P24524 34-464): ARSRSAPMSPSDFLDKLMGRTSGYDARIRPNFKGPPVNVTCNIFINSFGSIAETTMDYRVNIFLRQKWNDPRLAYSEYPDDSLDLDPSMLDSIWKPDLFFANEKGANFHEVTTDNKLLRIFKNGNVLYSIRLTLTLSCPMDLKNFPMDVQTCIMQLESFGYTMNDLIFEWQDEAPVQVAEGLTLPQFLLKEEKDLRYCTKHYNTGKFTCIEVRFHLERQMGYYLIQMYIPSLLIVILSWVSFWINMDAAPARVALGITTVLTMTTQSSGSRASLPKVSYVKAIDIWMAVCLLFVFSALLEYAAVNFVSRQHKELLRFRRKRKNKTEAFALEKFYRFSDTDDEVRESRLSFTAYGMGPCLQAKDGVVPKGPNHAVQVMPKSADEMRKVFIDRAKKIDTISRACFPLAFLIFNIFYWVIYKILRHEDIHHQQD
Description: as §1, §2

α2β GlyR = biological target: T3, α2β GlyR (Rattus norvegicus, UniProt P20781+P22771); assay: cell-based; format: cell-based
T3 construct: The cells were transfected with plasmids encoding the following proteins; expressed in transfected cells; host or cells: HEK293 (ATCC CRL-1573)
Description: as §1, §2

[2] = Hill coefficient of inhibition curve
[3] = calculated using the Cheng–Prussof equation
[4] = percentage change of glycine-evoked current

T3 sequence (P22771 28-452): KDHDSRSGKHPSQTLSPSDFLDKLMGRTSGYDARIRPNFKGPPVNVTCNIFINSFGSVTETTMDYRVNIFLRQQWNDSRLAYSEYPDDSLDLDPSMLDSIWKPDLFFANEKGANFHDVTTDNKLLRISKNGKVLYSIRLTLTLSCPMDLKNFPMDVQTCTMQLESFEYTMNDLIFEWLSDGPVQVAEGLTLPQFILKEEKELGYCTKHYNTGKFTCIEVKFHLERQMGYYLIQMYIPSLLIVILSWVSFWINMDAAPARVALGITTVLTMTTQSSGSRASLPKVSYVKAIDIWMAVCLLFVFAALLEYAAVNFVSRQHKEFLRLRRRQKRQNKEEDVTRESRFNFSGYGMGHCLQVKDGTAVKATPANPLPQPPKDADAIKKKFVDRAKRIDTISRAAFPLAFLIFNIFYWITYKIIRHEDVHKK
T3 sequence (P20781 23-496): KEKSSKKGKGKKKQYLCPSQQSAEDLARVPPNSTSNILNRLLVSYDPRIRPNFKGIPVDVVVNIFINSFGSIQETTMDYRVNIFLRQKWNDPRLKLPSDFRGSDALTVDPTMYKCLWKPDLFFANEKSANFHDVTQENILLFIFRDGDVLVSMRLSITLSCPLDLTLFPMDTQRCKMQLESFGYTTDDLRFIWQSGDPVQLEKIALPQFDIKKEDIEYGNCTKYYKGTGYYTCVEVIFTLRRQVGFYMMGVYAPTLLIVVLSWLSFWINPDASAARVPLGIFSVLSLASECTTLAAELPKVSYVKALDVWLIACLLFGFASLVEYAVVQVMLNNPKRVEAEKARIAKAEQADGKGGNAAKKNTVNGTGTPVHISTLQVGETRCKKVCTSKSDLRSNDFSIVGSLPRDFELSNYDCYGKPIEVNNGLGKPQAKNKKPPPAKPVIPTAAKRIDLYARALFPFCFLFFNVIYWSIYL

Row | Compound | effect on glycine-evoked currents (in words) (α1 GlyR; wild-type, 10 μM gelsemine, 35 μM glycine) | residue in brain tissue after systemic application [1] | EC50 (α3 GlyR; read-out: EC50 of agonist) [µM] | EC50 (α2β GlyR; read-out: EC50 of agonist) [µM] | IC50 (α3 GlyR) [µM] | nH (α3 GlyR; [2]) | Ki (α3 GlyR; [3]) [µM] | Maximal Modulation (α3 GlyR; [4]) [%] | IC50 (α2β GlyR) [µM] | nH (α2β GlyR; [2]) | Ki (α2β GlyR; [3]) [µM] | IC50 (α1 GlyR) [µM] | nH (α1 GlyR; [2]) | Ki (α1 GlyR; [3]) [µM] | Maximal Modulation (α1 GlyR; [4]) [%]
1 | C=C[C@]12CN(C)[C@@H]3[C@H]4CO[C@H](C[C@H]41)[C@]1(C(=O)Nc4ccccc41)[C@@H]32 [gelsemine] | potentiated | detectable in brain tissue after 3 days | – | – | – | – | – | – | – | – | – | – | – | – | –
2 | NCC(=O)O [glycine, reference compound] | – | – | 150 ± 10 | 105 ± 9 | – | – | – | – | – | – | – | – | – | – | –
3 | C=C[C@@]12CN(C)[C@H]3C[C@]14C(=Nc1ccccc14)[C@H]1C[C@@H]2[C@@H]3CO1 [koumine] | – | fully depleted after 1 day | – | – | 15.8 ± 4.6 | 0.9 ± 0.2 | 33.9 ± 15.8 | −87.3 ± 4.0 | 23.6 ± 8.3 | 1.3 ± 0.6 | 57.4 ± 4 | 31.5 ± 1.7 | 1.7 ± 0.1 | 53.1 ± 17.1 | −95.0 ± 1.5
